In patent US10786521B2, “Methods and compositions for treatment of COPD diseases” (Shanghai KE Pharmaceutical Co., LTD, priority 2014, dated 2020):

Tested on: permeable (skinned) airway smooth muscle strips
Test: Ca2+-induced sustained contraction of alpha-toxin permeabilized bronchial ring at constant calcium
Type: cell-based, C57BL/6J mice
Details: pCa 4.5 elicited contraction
Procedure: To assess the requirement of calcium reduction for kudinoside-mediated relaxation, smooth muscle tissues permeable were made. Briefly, the fresh bronchial ring were separated by sharp dissection from C57BL/6J mice. Following incubation for 10 minutes in H-T buffer, the muscle strips were treated for 5 minutes in Ca^2+-free H-T buffer and for 5 minutes in buffer A (30 mmol/L TES, 0.5 mmol/L dithiothreitol, 50 mmol/L KCl, 5 mmol/L K2EGTA, 150 mmol/L sucrose, pH 7.4), and then were subsequently permeabilized in α-toxin (16,000 units/mL; Sigma) in buffer A for 40 minutes at room temperature.
Treatment with […] ionomycin (Sigma) in buffer A for 10 minutes was used to deplete Ca^2+ stores. Permeable tissues were washed in pCa 9.0 solution (20 mmol/L TES, 4 mmol/L K2EGTA, 5.83 mmol/L MgCl2, 7.56 mmol/L potassium propionate, 3.9 mmol/L Na2ATP, 0.5 mmol/L dithioerythritol, 16.2 mmol/L phosphocreatine, 15 U/mL creatine kinase, pH 6.9), followed by incubation in pCa 4.5 solution (20 mmol/L TES, 4 mmol/L CaEGTA, 5.66 mmol/L MgCl2, 7.53 mmol/L potassium propionate, 3.9 mmol/L Na2ATP, 0.5 mmol/L dithioerythritol, 16.2 mmol/L phosphocreatine, 15 U/mL creatine kinase, pH 6.9) to elicit a sustained Ca^2+-induced contraction. After wash out the solution, permeable muscle strips were then incubated with pCa 5.0 solution and relaxed by adding Kudinoside D dissolved in pCa 5.0 solution.

C[C@@H]1O[C@@H](O[C@H]2[C@H](O[C@H]3CC[C@@]4(C)C(CC[C@]5(C)C4C=CC4=C6[C@]7(CC[C@](C)(OC7=O)[C@@]6(C)O)CC[C@]45C)C3(C)C)OC[C@H](O)[C@@H]2O[C@@H]2O[C@H](CO)[C@@H](O)[C@H](O)[C@H]2O)[C@H](O)[C@H](O)[C@H]1O (stereo partly shown) [Kudinoside D]
relaxation of sustained Ca2+-induced contraction of skinned muscle strip: could not relax this sustained contraction, and contrarily slightly enhanced it
